Measurements reported in patent US10487313B2, “Efficient induction of definitive endoderm from pluripotent stem cells” (Novo Nordisk A/S, priority 2011, dated 2019).

Key:
chIPS4 cells [1] = assay: OCT4 and SOX17 protein ICC quantification during DE induction, DEF culture system; assay type: cell-based, human; settings: for OCT4 ICC % positive cells / SOX17 ICC % positive cells: CHIR 3 μM D1 then Activin A D2-3, or D'Amour protocol
Method: Human embryonic stem (hES) cells SA121 and chIPS4 (Cellartis) were grown on human fibronectin (Sigma) in DEF culture media (Cellartis) with 30 ng/ml bFGF (Invitrogen) and 10 ng/ml Noggin (Peprotech) in 6-96 well plates. Cells were single cell passaged with Rock inhibitor Y-27632 (Calbiochem) and seeded at a density of 40000 cells/cm2 for experiments. Experiments were initiated 4 d after passage.
Confluent cultures were washed once in RPMI1640 (Invitrogen) before 24 hour pre-treatment with 0,5-7μM CHIR99021 (Stemgent) in RPMI. Control cells were left untreated in RPMI and D'Amour cells were either left in RPMI or treated with AA (Peprotech)+Wnt3a (R&D Systems) without pre-treatment depending on experimental setup.
After 24 hours, pretreated and control cells were washed once with RPMI before adding 100 ng/ml AA in RPMI. D'Amour cells were also treated with 100 ng/ml AA but with 0,2% FBS instead of B27. 24 h later, 2% B27 (Invitrogen) was added to the AA media for 2-3 d. Control cells were treated with B27 to prevent cell death and D'Amour cells with 2% FBS according to published protocol. Media was changed every day.
• Day 1: Cells were washed carefully in prewarmed (37° C.) RPMI before starting the differentiation. Day1 medium was premixed (CHIR 3 μM in prewarmed RPMI+PEST) and gently added to cell culture. Volumes were adjusted according to plate formats. • Day 2: Cells were washed carefully in prewarmed (37° C.) RPMI before media change. Day2 medium was premixed (100 ng/ml Activin A in prewarmed RPMI+0.1% PEST) and gently added to cell culture. • Day 3: Day3&4 mediums were premixed (100 ng/ml Activin A and 2% B27 in prewarmed RPMI+0.1% PEST) and gently added to cell culture. • Day 4: DE was harvested or reseeded for further differentiation. Cells were checked under the microscope every day.
Cells were washed in PBS+/+ and fixed in 4% formaldehyde for 30 min (10% formaline, VWR). The cells were then washed again three times in PBS and left in PBS (4° C.) until staining. Fixed cells were washed with PBS once, then permeabilized with 0.5% Triton X-100 in PBS for 6 min, washed in PBS and blocked with TNB buffer (0.1 M Tris-HCL pH 7.5, 0.15 M NaCl, 0.5% Blocking Reagent (Perkin Elmer)) for 30 min. Primary antibodies (goat-anti-SOX17 (AF1924, RnD Systems); goat-anti-Brachyury (AF2085, RnD Systems); mouse-anti-OCT4 (sc5279, SantaCruz Biotechnology); goat-anti-PDX1 (AB47383, Abcam)) were added in 0.1% TritonX-100+PBS for 1 h in RT or 4° C. O/N. After a thorough washing step in PBS, secondary antibodies were added together with DAPI in 0.1% Triton X-100+PBS for 45 min at RT, washed thoroughly in PBS and left in PBS until photodocumentation.
Undifferentiated ChIPS4 cells (d0) were either pre-treated for 24 h with CHIR (3 μM) or directly exposed to AA (100 ng/ml) and Wnta3a (25 ng/ml) according to Kroon et al 2008. The cells were then washed and AA was added for 1-4 d.
In addition, the most striking difference between the protocols could be seen in terms of morphology with a much higher degree of cell death during D'Amour treatment. To further strengthen the results, a quantification of SOX17 protein expression was thus performed. chIPS4 cells treated with either the CHIR- or D'Amour-protocol were fixed and stained using a SOX17-specific ab and the images were quantified in respect of total amounts and the percentage of SOX17-positive cells. […] In addition, the total amount of CHIR pre-treated cells was 25% higher than the number seen after D'Amour treatment.

chIPS4 cells [2] = assay: Further differentiation of DE towards pancreatic endoderm, PDX1 by ICC and real-time PCR; assay type: cell-based, human; settings: seven days after induction of PE differentiation
Method: When cells were further differentiated to PE, the DE protocol was applied in T75 cell culture flasks and reseeded after 4 d of DE culture at a density of 200 K in DE media. 1 d later, cells were washed once before addition of PE media (RPMI1640+12% KOSR+64 ng/ml bFGF) according to published protocol (Amen et al 2010). RNA samples were collected after 24 h pre-treatment (D1), after 1 day of AA treatment (D2) and after 1-2 d of AA+B27 treatment (D3-4). Total RNA was extracted with the Rneasy Plus Mini kit (Qiagen) and quantitative real-time PCR was performed using the StepOnePLus system (Applied Biosystems). Cells were washed in PBS+/+ and fixed in 4% formaldehyde for 30 min (10% formaline, VWR). The cells were then washed again three times in PBS and left in PBS (4° C.) until staining. Fixed cells were washed with PBS once, then permeabilized with 0.5% Triton X-100 in PBS for 6 min, washed in PBS and blocked with TNB buffer (0.1 M Tris-HCL pH 7.5, 0.15 M NaCl, 0.5% Blocking Reagent (Perkin Elmer)) for 30 min. […] Seven days after the induction of PE differentiation the cells were fixed and analyzed by ICC using a PDX1 specific antibody. […] In parallel, mRNA was collected from the cells and the PDX1 expression was analyzed by real-time PCR. […]

## Cc1c[nH]c(-c2cnc(NCCNc3ccc(C#N)cn3)nc2-c2ccc(Cl)cc2Cl)n1 [CHIR, CHIR99021]
chIPS4 cells [1]; chIPS4, D1
  OCT4 ICC % positive cells: 91.2%
  SOX17 ICC % positive cells: 0.9%
chIPS4 cells [1]; chIPS4, D2
  OCT4 ICC % positive cells: 3.1%
  SOX17 ICC % positive cells: 68.8%
chIPS4 cells [1]; chIPS4, D3
  OCT4 ICC % positive cells: 3.7%
  SOX17 ICC % positive cells: 91.5%
chIPS4 cells [1]; chIPS4, d3, image quantification
  total amount of cells higher than after D'Amour treatment: 25%
chIPS4 cells [2]
  PDX1 mRNA expression by real-time PCR: clear expression
  PDX1 staining by ICC: evident
